Data: BindingDB's records for doi:10.1016/j.bmcl.2011.09.060 (Second Military Medical University, 2011)

The molecules below were run against Acrosin (Homo sapiens, UniProt P10323) (assay: Inhibition of acrosin activity in human spermatozoa using N-alpha-benzoyl-DL-arginine para-nitroanilide-HCI as a substrate after 3 hrs by spectrophotometric analysis).
Chain of Acrosin (P10323 20-42 limits assumed): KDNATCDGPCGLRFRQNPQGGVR
Chain of Acrosin (P10323 43-343 limits assumed): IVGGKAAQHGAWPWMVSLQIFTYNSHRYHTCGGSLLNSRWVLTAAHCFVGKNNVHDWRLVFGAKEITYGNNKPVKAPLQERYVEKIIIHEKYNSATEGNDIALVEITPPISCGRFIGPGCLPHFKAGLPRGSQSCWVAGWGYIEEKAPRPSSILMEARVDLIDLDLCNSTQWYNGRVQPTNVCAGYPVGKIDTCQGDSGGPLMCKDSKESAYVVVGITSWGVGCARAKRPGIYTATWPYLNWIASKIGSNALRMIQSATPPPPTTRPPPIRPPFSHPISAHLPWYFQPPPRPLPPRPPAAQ

Row | IC50 | Compound
1 | 7.63 mM | N=C(N)NS(=O)(=O)c1ccc(NC(=O)c2ccccc2Br)cc1
2 | 9.35 mM | N=C(N)NS(=O)(=O)c1ccc(NC(=O)COc2ccc(Cl)cc2)cc1
3 | 0.13 mM | CCOc1ccc(C(=O)Nc2ccc(S(=O)(=O)NC(=N)N)cc2)cc1
4 | 6.3 mM | N=C(N)NS(=O)(=O)c1ccc(NC(=O)c2ccccc2Cl)cc1
5 | 7.05 mM | N=C(N)NS(=O)(=O)c1ccc(NC(=O)c2cccc(C(F)(F)F)c2)cc1
6 | 4.2 mM | N=C(N)NS(=O)(=O)c1ccc(NC(=O)COc2ccc([N+](=O)[O-])cc2)cc1
7 | 3.84 mM | N=C(N)NS(=O)(=O)c1ccc(NC(=O)c2ccc(CCl)cc2)cc1
8 | 5.63 mM | N=C(N)NS(=O)(=O)c1ccc(NC(=O)c2ccc(Cl)cc2Cl)cc1
9 | 7.11 mM | N=C(N)NS(=O)(=O)c1ccc(NC(=O)c2ccc(F)cc2)cc1
10 | 2.06 mM | Cc1ccc(C(=O)Nc2ccc(S(=O)(=O)NC(=N)N)cc2)cc1
11 | 7 mM | N=C(N)NS(=O)(=O)c1ccc(NC(=O)c2cccc(Cl)c2)cc1
12 | 2.21 mM | COc1ccc(C(=O)Nc2ccc(S(=O)(=O)NC(=N)N)cc2)cc1

The next lines start with the molecule.

Row | Compound | IC50
13 | N=C(N)NS(=O)(=O)c1ccc(NC(=O)c2c(F)cccc2F)cc1 | 7.18 mM
14 | NC(N)=NS(=O)(=O)c1ccc(NC(=O)c2c(Cl)cccc2Cl)cc1 | 5.96 mM
15 | N=C(N)NS(=O)(=O)c1ccc(NC(=O)COc2ccccc2)cc1 | 2.3 mM
16 | CC1CCCCN1CC(=O)Nc1ccc(S(=O)(=O)N=C(N)N)cc1 (stereo unspecified) | 9.9 mM
17 | COC(=O)c1ccc(OC(=O)c2ccc(NC(=N)N)cc2)cc1 | 0.027 mM
18 | CCCCOC(=O)C1CCN(CC(=O)Nc2ccc(S(=O)(=O)NC(=N)N)cc2)CC1 | 9.5 mM
19 | COc1ccc(OCC(=O)Nc2ccc(S(=O)(=O)N=C(N)N)cc2)cc1 | 9.84 mM
20 | CCOC(=O)C1CCN(CC(=O)Nc2ccc(S(=O)(=O)N=C(N)N)cc2)CC1 | 2.99 mM
21 | CCCC(=O)Nc1ccc(S(=O)(=O)NC(=N)N)cc1 | 9.58 mM
22 | CC(C)OC(=O)C1CCN(CC(=O)Nc2ccc(S(=O)(=O)NC(=N)N)cc2)CC1 | 2.35 mM
23 | Cc1cccc(OCC(=O)Nc2ccc(S(=O)(=O)N=C(N)N)cc2)c1 | 8.92 mM
24 | NC(N)=NS(=O)(=O)c1ccc(NC(=O)c2cc([N+](=O)[O-])cc([N+](=O)[O-])c2)cc1 | 2.5 mM
25 | CC(C)CCOC(=O)C1CCN(CC(=O)Nc2ccc(S(=O)(=O)NC(=N)N)cc2)CC1 | 2.51 mM
26 | Cc1ccc(OCC(=O)Nc2ccc(S(=O)(=O)N=C(N)N)cc2)cc1 | 8.98 mM
27 | NC(N)=NS(=O)(=O)c1ccc(NC(=O)c2ccc(Cl)c(Cl)c2)cc1 | 3.8 mM
28 | NC(N)=NS(=O)(=O)c1ccc(NC(=O)CN2CCCCC2)cc1 | 7.41 mM
29 | CCCCC(=O)Nc1ccc(S(=O)(=O)NC(=N)N)cc1 | 1.58 mM
30 | CC1CCN(CC(=O)Nc2ccc(S(=O)(=O)NC(=N)N)cc2)CC1 | 4.98 mM
31 | CCC(=O)Nc1ccc(S(=O)(=O)N=C(N)N)cc1 | 9 mM
32 | COC(=O)C1CCN(CC(=O)Nc2ccc(S(=O)(=O)NC(=N)N)cc2)CC1 | 9.3 mM
33 | Cc1ccccc1OCC(=O)Nc1ccc(S(=O)(=O)NC(=N)N)cc1 | 9.3 mM
34 | CCCOC(=O)C1CCN(CC(=O)Nc2ccc(S(=O)(=O)N=C(N)N)cc2)CC1 | 3.31 mM
35 | Cc1cc(C)c(C(=O)Nc2ccc(S(=O)(=O)NC(=N)N)cc2)c(C)c1 | 2.45 mM
36 | CCc1ccc(C(=O)Nc2ccc(S(=O)(=O)N=C(N)N)cc2)cc1 | 0.21 mM
